Data as given in PMC4890880 (ACS infectious diseases, 2016).

What was measured:
[1] = test system: HepG2-A16-CD81EGFP cells; details: sheet "2nd round"; for IC50: read-out: Tox_IC50, HepG2 cytotoxicity
[2] = test system: Plasmodium berghei (Pb-Luc) exoerythrocytic-stage parasites; details: for normalised signal at concentration 10 (first series): concentration 10, first series of dose columns; for normalised signal at concentration 10 (second series): concentration 10, second series of dose columns; for IC50: read-out: PbLuc_IC50, Broad compounds, dose response top concentration 10; for IC50 / PbLuc_max_inhibition (%): sheet "2nd round"

SMILES	IC50 [1] [µM]	Tox_max_inhibition (%) [1] [%]	normalised signal at concentration 0.000508053 (first series) [2]	normalised signal at concentration 0.000508053 (second series) [2]	normalised signal at concentration 0.00152416 (first series) [2]	normalised signal at concentration 0.00152416 (second series) [2]	normalised signal at concentration 0.00457247 (first series) [2]	normalised signal at concentration 0.00457247 (second series) [2]	normalised signal at concentration 0.0137174 (first series) [2]	normalised signal at concentration 0.0137174 (second series) [2]	normalised signal at concentration 0.0411523 (first series) [2]	normalised signal at concentration 0.0411523 (second series) [2]	normalised signal at concentration 0.123457 (first series) [2]	normalised signal at concentration 0.123457 (second series) [2]	normalised signal at concentration 0.37037 (first series) [2]	normalised signal at concentration 0.37037 (second series) [2]	normalised signal at concentration 1.11111 (first series) [2]	normalised signal at concentration 1.11111 (second series) [2]	normalised signal at concentration 3.33333 (first series) [2]	normalised signal at concentration 3.33333 (second series) [2]	further results
O=C(NCc1ccc2c(c1)OCO2)[C@@H]1[C@@H](CO)[C@@H]2Cn3c(cccc3=O)[C@H]1N2Cc1cncnc1 [BRD-K31004267-001-01-6]	> 10	14	0.9455	0.7294	0.9922	1.083	0.9907	0.8279	0.9424	0.9304	0.8128	1.152	0.8401	1.066	1.129	0.8899	0.9661	0.8895	0.7673	0.9284	normalised signal at concentration 10 (first series) [2]: 1.039; normalised signal at concentration 10 (second series) [2]: 0.9564; IC50 [2]: > 10 µM; PbLuc_max_inhibition (%) [2]: 27%
C[C@H](CO)N1C[C@H](C)[C@@H](CN(C)S(=O)(=O)c2ccc(F)cc2)OCCCC[C@H](C)Oc2ccc(N(C)C)cc2C1=O [BRD-K31169989-001-01-4]	> 10	13	0.9593	1.075	0.7705	0.9043	0.8601	0.8661	0.7407	1.136	1.052	0.8649	0.7251	0.9568	0.9029	0.9798	0.7471	0.8642	0.9659	0.7643	normalised signal at concentration 10 (first series) [2]: 0.5392; normalised signal at concentration 10 (second series) [2]: 0.607; IC50 [2]: > 10 µM; PbLuc_max_inhibition (%) [2]: 46%
